Measurements from patent publication US12403144B2, “HECT E3 ligase inhibitors and uses thereof” (IFOM FONDAZIONE ISTITUTO FIRC DI ONCOLOGIA MOLECOLARE, priority 2019, dated 2025).

Molecular target: T1, HECT domain of NEDD4 (Homo sapiens, UniProt P46934)
T1 construct: crystal structure of the HECT domain of NEDD4 in complex with compound 12; made in house
T1 sequence (P46934 519-900 isoform P46934-4 limits assumed): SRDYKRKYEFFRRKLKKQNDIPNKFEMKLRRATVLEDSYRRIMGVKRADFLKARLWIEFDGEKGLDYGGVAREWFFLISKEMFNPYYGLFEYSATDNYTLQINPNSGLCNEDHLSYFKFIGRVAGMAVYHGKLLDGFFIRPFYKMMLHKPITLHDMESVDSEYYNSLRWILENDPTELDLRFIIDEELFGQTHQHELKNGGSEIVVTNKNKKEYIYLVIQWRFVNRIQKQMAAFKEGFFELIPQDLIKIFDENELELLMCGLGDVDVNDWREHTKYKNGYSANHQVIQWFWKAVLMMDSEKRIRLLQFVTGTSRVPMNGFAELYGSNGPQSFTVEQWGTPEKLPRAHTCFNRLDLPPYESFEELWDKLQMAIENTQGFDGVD
Experiment: X-Ray crystal structure of the HECT domain of NEDD4 in complex with compound
Format: binding
Settings: crystal soaking; thiol group of Cys627 attacks the α,β-unsaturated ester
Text: FIG. 2: Structure of NEDD4 HECT in complex with compound 12. a. Compound 12 (dark grey sticks representation) binding to the HECT of NEDD4 (light grey), with a Fo-Fc map, calculated omitting the ligand, contoured at 2.5α level (represented as a grey mesh). b. Details of ligand binding: compound 12 and covalently or hydrogen-bonded NEDD4 residues are in ball-and-stick representation, hydrogen bond is shown as dotted line; spoked arcs represent protein residues making nonbonded contacts with the ligand.
FIG. 3: Structure of apo NEDD4 HECT superimposed with the one of the complex HECT-compound 12. Changes in the HECT structure upon compound 12 binding. Apo-HECT (pdb entry 2xbf, version 1.2, 13 Jul. 2011) depicted as dark grey ribbon; complex depicted as light grey ribbon. Side chains of residues Glu554 and Tyr634, and to a less extent those of Tyr604 and Tyr605, as well as main and side chain of residue Cys627 (covalently bound to the inhibitor) are rearranged upon inhibitor binding.
The inventors obtained by X-Ray the crystal structure of the HECT domain of NEDD4 in complex with compound 12. […]

binding mode in crystal structure of NEDD4 HECT complex: covalent link to the protein
SMILES: CCOC(=O)/C=C/CNCCCCN1c2ccccc2CCc2ccc(Cl)cc21.O=C(O)/C=C\C(=O)O [Compound 12, Ethyl (E)-4-[4-(3-chloro-10,11-dihydro-5H-dibenzo[b,f]azepin-5-yl)butylamino]but-2-enoate maleate]
